Reference: publication PMC11793105, “A kalihinol analog disrupts apicoplast function and vesicular trafficking in P. falciparum malaria” (Science (New York, N.Y.), 2024)

Assays:
[1] = system: P. falciparum 3D7 parasites; experiment: Isopentenyl pyrophosphate (IPP) rescue assay; assay type: cell-based, Plasmodium falciparum; conditions: drug at IC80 for one IEC before IPP (200 μM)
Excerpt: Fig. 2. […] Nuclei are stained with 4’,6-diamidino-2-phenylindole (DAPI; blue). […] (B) Dose-dependent interactions between MED6-189 (blue) and various antimalarials with known mechanisms of action (red). […] The regression line represents a nonlinear regression (variable slope with four parameters), with significant differences considered if P < 0.05. […] Isobologram curves are expected to be parallel to the diagonal for additive drug pairs, concave for synergistic drug pairs, and convex for antagonistic drug pairs. […] The analysis was performed using a two-way ANOVA, n = 3, with P < 0.05 significance.
IPP is a product of the MEP/DOXP pathway, and its supplementation reduces susceptibility to MEP inhibitors. […] Parasites were drugged at 80% inhibitory concentrations (IC80) for one IEC before IPP (200 μM) supplementation.

P. falciparum cultures = experiment: Exponential killing rate at IC80; assay type: cell-based, Plasmodium falciparum; conditions: triplicate

O=CN(O)CCCP(=O)(O)O [fosmidomycin, reference compound]
rescue of parasites by IPP supplementation [1]: survived the second IEC and initiated a third cycle | Exponential killing rate k = (1/t)* log10(N0/Nt) (P. falciparum cultures; at IC80, 48 HPS): 0.007019 | Exponential killing rate k = (1/t)* log10(N0/Nt) (P. falciparum cultures; at IC80, 72 HPS): 0.01081 | Exponential killing rate k = (1/t)* log10(N0/Nt) (P. falciparum cultures; at IC80, 100 HPS): 0.008797
